# Data taken from patent US10118935B2, “Melampomagnolide B dimers” (priority 2014, dated 2018).
# Assays:
# 786-0 = test: NCI 60 cell line five dose, Renal Cancer
# HCC-2998 = test: NCI 60 cell line five dose, Colon Cancer
# BT-549 = test: NCI 60 cell line five dose, Breast Cancer
# RPMI-8226 = test: NCI 60 cell line five dose, Leukemia
# RXF 393 = test: NCI 60 cell line five dose, Renal Cancer
# COLO 205 = test: NCI 60 cell line five dose, Colon Cancer
# OVCAR-5 = test: NCI 60 cell line five dose, Ovarian Cancer
# SK-OV-3 = test: NCI 60 cell line five dose, Ovarian Cancer
# K-562 = test: NCI 60 cell line five dose, Leukemia
# HCT-116 = test: NCI 60 cell line five dose, Colon Cancer
# HOP-92 = test: NCI 60 cell line five dose, Non-Small Cell Lung Cancer
# SK-MEL-28 = test: NCI 60 cell line five dose, Melanoma; conditions: SK-MEL-28
# MALME-3M = test: NCI 60 cell line five dose, Melanoma; conditions: MALME-3M
# U251 = test: NCI 60 cell line five dose, CNS Cancer
# UACC-62 = test: NCI 60 cell line five dose, Melanoma
# SF-539 = test: NCI 60 cell line five dose, CNS Cancer
# M14 = test: NCI 60 cell line five dose, Melanoma
# HCT-15 = test: NCI 60 cell line five dose, Colon Cancer
# OVCAR-3 = test: NCI 60 cell line five dose, Ovarian Cancer
# SF-295 = test: NCI 60 cell line five dose, CNS Cancer
# KM12 = test: NCI 60 cell line five dose, Colon Cancer
# UO-31 = test: NCI 60 cell line five dose, Renal Cancer
# SNB-19 = conditions: SNB-19
# OVCAR-8 = test: NCI 60 cell line five dose, Ovarian Cancer
compound,measurement,setting,value
"C=C1C(=O)O[C@H]2[C@H]1CC/C(COC(=O)NCCCCCNC(=O)OC/C1=C/CC[C@@]3(C)O[C@H]3[C@H]3OC(=O)C(=C)[C@@H]3CC1)=C\CC[C@@]1(C)O[C@@H]21 [JVM 2-76, bis(((1aR,7aS,10aS,10bS,E)-1a-Methyl-8-methylene-9-oxo-1a,2,3,6,7,7a,8,9,10a,10b-decahydrooxireno[2′,3′:9,10]cyclodeca[1,2-b]furan-5-yl)methyl)pentane-1,5-diyldicarbamate]",GI50,786-0,1.57 µM
same,TGI,786-0,3.17 µM
same,CC50,786-0; read-out: LC50,6.39 µM
same,GI50,HCC-2998,6.71 µM
same,TGI,HCC-2998,20.7 µM
same,CC50,HCC-2998; read-out: LC50,53.9 µM
same,GI50,BT-549,1 µM
same,TGI,BT-549,2.23 µM
same,CC50,BT-549; read-out: LC50,4.96 µM
same,GI50,RPMI-8226,0.78 µM
same,TGI,RPMI-8226,4.16 µM
same,CC50,RPMI-8226; read-out: LC50,> 100 µM
same,GI50,RXF 393,0.85 µM
same,TGI,RXF 393,2.43 µM
same,CC50,RXF 393; read-out: LC50,6.35 µM
same,GI50,COLO 205,0.52 µM
same,TGI,COLO 205,2.33 µM
same,CC50,COLO 205; read-out: LC50,7.97 µM
same,GI50,OVCAR-5,1.67 µM
same,TGI,OVCAR-5,3.53 µM
same,CC50,OVCAR-5; read-out: LC50,7.47 µM
same,GI50,SK-OV-3,5.99 µM
same,TGI,SK-OV-3,19.7 µM
same,CC50,SK-OV-3; read-out: LC50,49.9 µM
same,GI50,K-562,0.56 µM
same,TGI,K-562,16.1 µM
same,CC50,K-562; read-out: LC50,> 100 µM
same,GI50,HCT-116,0.54 µM
same,TGI,HCT-116,1.86 µM
same,CC50,HCT-116; read-out: LC50,4.56 µM
same,GI50,HOP-92,1.3 µM
same,TGI,HOP-92,3.35 µM
same,CC50,HOP-92; read-out: LC50,8.61 µM
same,GI50,SK-MEL-28,1.58 µM
same,TGI,SK-MEL-28,4.13 µM
same,CC50,SK-MEL-28; read-out: LC50,12.6 µM
same,GI50,MALME-3M,2.06 µM
same,TGI,MALME-3M,5.24 µM
same,CC50,MALME-3M; read-out: LC50,27.3 µM
same,GI50,U251,3.51 µM
same,TGI,U251,13.7 µM
same,CC50,U251; read-out: LC50,51.5 µM
same,GI50,UACC-62,1.41 µM
same,TGI,UACC-62,3.16 µM
same,CC50,UACC-62; read-out: LC50,7.04 µM
same,GI50,SF-539,1.92 µM
same,TGI,SF-539,4.56 µM
same,CC50,SF-539; read-out: LC50,12.7 µM
same,GI50,M14,1.71 µM
same,TGI,M14,3.74 µM
same,CC50,M14; read-out: LC50,8.2 µM
same,GI50,HCT-15,6.18 µM
same,TGI,HCT-15,20.7 µM
same,CC50,HCT-15; read-out: LC50,49.8 µM
same,GI50,OVCAR-3,0.76 µM
same,TGI,OVCAR-3,2.13 µM
same,CC50,OVCAR-3; read-out: LC50,5.07 µM
same,GI50,SF-295,11.1 µM
same,TGI,SF-295,26.9 µM
same,CC50,SF-295; read-out: LC50,65.2 µM
same,GI50,KM12,6.53 µM
same,TGI,KM12,21.0 µM
same,CC50,KM12; read-out: LC50,54.2 µM
same,GI50,UO-31,8.9 µM
same,TGI,UO-31,22.5 µM
same,CC50,UO-31; read-out: LC50,52.3 µM
same,GI50,SNB-19,3.97 µM
same,TGI,SNB-19,19.0 µM
same,CC50,SNB-19; read-out: LC50,92.5 µM
same,GI50,OVCAR-8,3.27 µM
same,TGI,OVCAR-8,13.7 µM
same,CC50,OVCAR-8; read-out: LC50,61 µM
